Data from US6444671B1, “Cyclic AMP-specific phosphodiesterase inhibitors” (ICOS Corporation, priority 1999, dated 2002).
pIC50: −log10 of the molar value. Read-outs that look alike come from different tables or passages of the source.

How the values were obtained:
recombinant human PDE4 [1] = tested on: T1, recombinant human PDE4; experiment: PDE4 inhibition, recombinant human PDE4, [32P]cAMP charcoal separation assay; format: biochemical
T1 construct: PDE4 IC50 (nM); other: recombinant human PDE4
Protocol: The compounds of structural formula (II) were tested for an ability to inhibit PDE4. The ability of a compound to inhibit PDE4 activity is related to the IC50 value for the compound, i.e., the concentration of inhibitor required for 50% inhibition of enzyme activity. The IC50 value for compounds of structural formula (II) were determined using recombinant human PDE4.
The production of recombinant human PDEs and the IC50 determinations can be accomplished by well-known methods in the art. Exemplary methods are described as follows:
Recombinant production of human PDE1B, PDE2, PDE4A, PDE4B, PDE4C, PDE4D, PDE5, and PDE7 was carried out similarly to that described in Example 7 of U.S. Pat. No. 5,702,936, incorporated herein by reference, except that the yeast transformation vector employed, which is derived from the basic ADH2 plasmid described in Price et al., Methods in Enzymology, 135, pp. 308-318 (1990), incorporated. yeast ADH2 promoter and terminator sequences and the Saccharomyces cerevisiae host was the protease-deficient strain BJ2-54 deposited on Aug. 31, 1998 with the American Type Culture Collection, Manassas, Va., under accession number ATCC 74465. Transformed host cells were grown in 2×SC-leu medium, pH 6.2, with trace metals, and vitamins. After 24 hours, YEP medium-containing glycerol was added to a final concentration of 2×YET/3% glycerol. Approximately 24 hr later, cells were harvested, washed, and stored at −70° C.
Phosphodiesterase activity of the preparations was determined as follows. PDE assays utilizing a charcoal separation technique were performed essentially as described in Loughney et al. (1996). In this assay, PDE activity converts [32P]cAMP or [32P]cGMP to the corresponding [32P]5′-AMP or [32P]5′-GMP in proportion to the amount of PDE activity present. The [32P]5′-AMP or [32P]5′-GMP then was quantitatively converted to free [32P]phosphate and unlabeled adenosine or guanosine by the action of snake venom 5′-nucleotidase. […] The assay was performed at 30° C. in a 100 μL reaction mixture containing (final concentrations) 40 mM Tris HCl (pH 8.0), 1 μM ZnSO4, 5 mM MgCl2, and 0.1 mg/mL bovine serum albumin (BSA) Alternatively, in assays assessing PDE1-specific activity, incubation mixtures further incorporated the use of 0.1 mM CaChe and 10 μg/mL calmodulin. PDE enzyme was present in quantities that yield<30% total hydrolysis of substrate (linear assay conditions). The assay was initiated by addition of substrate ([…] [32P]cAMP or cGMP), and the mixture was incubated for 12 minutes. […] After centrifugation (750×g for 3 minutes) to sediment the charcoal, a sample of the supernatant was taken for radioactivity determination in a scintillation counter and the PDE activity was calculated.

recombinant human PDE4 [2] = settings: reported value, background section; read-out: IC50 with respect to inhibiting recombinant human PDE4; cited from earlier work
[3] = in vivo; cited from earlier work

Compound	pIC50 (recombinant human PDE4 [1])	other results
CCc1nn(C2CCCC2)c2cc([C@@H]3CN(C(=O)OC)C[C@@]3(C)CO)ccc12 [Example 4, Methyl (3S,4S)-4-(1-cyclopentyl-3-ethyl(1H-indazol-6-yl))-3-(hydroxymethyl)-3-methyl Pyrrolidine Carboxylate]	7.10	
COC(=O)N1CC(c2ccc(OC)c(OC3CCCC3)c2)C(C)(C(C)=O)C1 (stereo not shown) [formula (I)]		pIC50 (recombinant human PDE4 [2]): ~8.70
CCc1nn(C2CCCC2)c2cc([C@@H]3CN(Cc4ccccc4)C[C@@]3(C)CO)ccc12 [Example 3, [(3S,4S)-4-(1-Cyclopentyl-3-ethyl(1H-indazol-6-yl))-3-methyl-1-benzylpyrrolidin-3-yl]methan-1-ol]	8.21	
R-rolipram		Emetic potential relative to the (+)-enantiomer (S-rolipram) [3]: about ten-fold more emetic
COc1ccc(C2CNC(=O)C2)cc1OC1CCCC1 (stereo not shown) [Rolipram, rolipram]		pIC50 (recombinant human PDE4 [2]): ~6.70
CCc1nn(C2CCCC2)c2cc([C@@H]3CN(Cc4ccccc4)C[C@@]3(C)C(C)O)ccc12 (stereo partly drawn) [Example 2, (1R)-1-[(3S,4S)-4-(1-Cyclopentyl-3-ethyl(1H-indazol-6-yl))-3-methyl-1-benzylpyrrolidin-3-yl]ethan-1-ol]	7.06	
CCc1nn(C2CCCC2)c2cc([C@@H]3CN(Cc4ccccc4)C[C@@]3(C)C(C)O)ccc12 (stereo partly drawn) [Example 1, (1S)-1-[(3S,4S)-4-(1-Cyclopentyl-3-ethyl(1H-indazol-6-yl))-3-methyl-1-benzylpyrrolidin-3-yl]ethan-1-ol]	6.50	
